Test results published in patent US6150524A, “Morphine derivatives with analgesic activity” (priority 1995, dated 2000).
Where a name gives a salt, the structure may show the parent alone. Read-outs that look alike come from different tables or passages of the source.

Test system: mice
Assay: Haffner test ("Tail clip test") in mice
Format: in vivo, mouse (male CD mice)
Details: Mus musculus, read-out: ED50 (Haffner test in mice)
From the text: METHOD: Haffner Test ("Tail clip test") in Mice
The Haffner test is a standard procedure for determining the pain-inhibiting effect of powerful analgesics, mostly of the opioid type, in mice. The method largely corresponds to the one described by Bianchi C. and Franceschini J. (Brit. J. Pharmacol. 9:280, 1954; Experimental observations on Haffner's method for testing analgesic drugs).
Male CD mice (from Charles River, Sulzfeld, FRG) with an average weight of 30±5 grams were used. The animals were kept under standard conditions (temperature: 22±2° C., relative humidity: 55±10%, air exchange: 15-20 times per hour and 12/12 hours light/darkness cycle). The animals had unlimited access to food and water until the test began. During the test the animals were kept singly in Makrolon Type III cages with no bedding. A 3.5 cm arterial clamp was placed about 2 cm from the base of the tail and the pain reaction time was measured in seconds. Any active attempt by the animal to remove the clamp was assessed as a pain reaction. To prevent tissue damage, the test was stopped after at most 30 seconds in every case (cut off latency). In a preliminary test, mice with a pain reaction time of less than 5 seconds (base line latency) were selected for the actual test, which was carried out at specific intervals after the administration of the drug (test latency).
Corresponding quantities of test substances were dissolved in physiological saline solution for intravenous administration or in twice distilled water for oral administration. The total volume administered was 10 ml/kg of body weight in each case. Controls were given the same solvent but with no test substance. 8-10 mice were tested in each group.
The results were plotted as individual values (seconds), mean value±scattering (seconds) per group and as the percent of the maximum possible effect (% MPE=percent of Maximum Possible Effect). [formula] Significant differences between the control and test groups were calculated by means of an unpaired, two-sided Students T-test (*2P<0.05;**2P<0.01; 2P<0.001).
The ED50 value describes the dosage at which 50% of the maximum possible effect (MPE) is achieved. The ED50 value is calculated by linear regression between the dose and the % MPE.

SMILES	ED50 (iv, 10 min, i.v., 10 min.) [µmol/kg]	ED50 (iv, 0.5 h, i.v., 30 min.) [µmol/kg]	ED50 (iv, 1 h, i.v., 60 min.) [µmol/kg]	ED50 (iv, 2 h, i.v., 120 min.) [µmol/kg]	ED50 (po, 0.5 h, p.o., 30 min.) [µmol/kg]	ED50 (po, 1 h, p.o., 60 min.) [µmol/kg]	ED50 (po, 2 h, p.o., 120 min.) [µmol/kg]	ED50 (po, 3 h, p.o., 180 min.) [µmol/kg]	ED50 (iv, 10 min) [µmol/kg]	ED50 (iv, 0.5 h) [µmol/kg]	ED50 (iv, 1 h) [µmol/kg]	ED50 (iv, 2 h) [µmol/kg]	ED50 (po, 0.5 h) [µmol/kg]	ED50 (po, 1 h) [µmol/kg]	ED50 (po, 2 h) [µmol/kg]	ED50 (po, 3 h) [µmol/kg]
COC(=O)CCCCC(=O)O[C@H]1C=C[C@H]2[C@H]3Cc4ccc(O)c5c4[C@@]2(CCN3C)[C@H]1O5 [Example 20]	0.0037	0.0051	0.011	0.015	0.118	0.12	0.17	0.234	–	–	–	–	–	–	–	–
COC(=O)CCCCC(=O)O[C@H]1CC[C@H]2[C@H]3Cc4ccc(O)c5c4[C@@]2(CCN3C)[C@H]1O5 [Example 4, 4,5α-Epoxy-6α-((5-methoxycarbonyl-valeryl)-oxy)-17-methyl-morphinan-3-ol acetate]	–	–	–	–	0.039	0.044	0.073	0.189	–	–	–	–	–	–	–	–
CN1CC[C@]23c4c5ccc(O)c4O[C@H]2[C@@H](OCCCCOC(=O)C(C)(C)C)C=C[C@H]3[C@H]1C5 [Example 6]	0.0005	0.0026	0.0114	0.029	0.058	0.108	0.12	0.132	–	–	–	–	–	–	–	–
CN1CC[C@]23c4c5ccc(O)c4O[C@H]2[C@@H](OC(=O)C(C)(O)C(F)(F)F)C=C[C@H]3[C@H]1C5 (some centres unmarked) [Example 11]	0.0056	0.007	0.013	0.019	0.148	0.172	0.256	0.269	–	–	–	–	–	–	–	–
CN1CC[C@]23c4c5ccc(O)c4O[C@H]2[C@@H](O)C=C[C@H]3[C@H]1C5 [Morphine.HCl, reference compound]	–	–	–	–	–	–	–	–	0.017	0.019	0.021	0.037	0.279	0.296	0.539	0.718
COc1ccc(CCCC(=O)O[C@H]2C=C[C@H]3[C@H]4Cc5ccc(O)c6c5[C@@]3(CCN4C)[C@H]2O6)cc1 [Example 19]	0.002	0.0025	0.0033	0.0056	0.084	0.107	0.128	0.178	–	–	–	–	–	–	–	–
COC(=O)CCCCCCC(=O)O[C@H]1C=C[C@H]2[C@H]3Cc4ccc(O)c5c4[C@@]2(CCN3C)[C@H]1O5 [Example 22, 4,5α-Epoxy-6α-((6-methoxycarbonyl-hexylcarbonyl)-oxy)-17-methyl-morphinan-7-en-3-ol]	0.0025	0.0033	0.005	0.022	0.109	0.208	0.298	0.315	–	–	–	–	–	–	–	–
CCCC(COC1C=CC2C3Cc4ccc(O)c5c4C2(CCN3C)C1O5)OC(C)=O (centres unmarked) [Example 32]	0.001	0.003	0.0099	0.024	0.068	0.12	0.154	0.232	–	–	–	–	–	–	–	–
CN1CC[C@]23c4c5ccc(O)c4O[C@H]2[C@@H](OCCCCC#N)C=C[C@H]3[C@H]1C5 [Example 27]	0.0059	0.0073	0.0154	0.038	0.059	0.073	0.108	0.178	–	–	–	–	–	–	–	–
CCOC(=O)CCCCCO[C@H]1C=C[C@H]2[C@H]3Cc4ccc(O)c5c4[C@@]2(CCN3C)[C@H]1O5 [Example 22]	0.003	0.0037	0.01	0.012	0.055	0.09	0.096	0.086	–	–	–	–	–	–	–	–
CN1CC[C@]23c4c5ccc(O)c4O[C@H]2[C@@H](OCCCCOC(=O)c2ccccc2)C=C[C@H]3[C@H]1C5 [Example 4]	0.0004	0.0031	0.0119	0.0217	0.035	0.046	0.058	0.069	–	–	–	–	–	–	–	–
CC(=O)OCCCO[C@H]1C=C[C@H]2[C@H]3Cc4ccc(O)c5c4[C@@]2(CCN3C)[C@H]1O5 [Example 38]	0.0003	0.0019	0.0036	0.079	0.023	0.027	0.035	0.043	–	–	–	–	–	–	–	–
CCOC(=O)CCCCO[C@H]1C=C[C@H]2[C@H]3Cc4ccc(O)c5c4[C@@]2(CCN3C)[C@H]1O5 [Example 25]	0.0011	0.0057	0.0112	0.0129	0.0201	0.028	0.031	0.037	–	–	–	–	–	–	–	–
CN1CC[C@]23c4c5ccc(O)c4O[C@H]2[C@@H](OCCCO)C=C[C@H]3[C@H]1C5 [Example 39]	–	–	–	–	0.027	0.035	0.149	0.283	–	–	–	–	–	–	–	–
COC(=O)c1ccc(CO[C@H]2C=C[C@H]3[C@H]4Cc5ccc(O)c6c5[C@@]3(CCN4C)[C@H]2O6)cc1 [Example 5]	0.0008	0.0008	0.0032	0.0095	0.06	0.068	0.072	0.09	–	–	–	–	–	–	–	–
CCCC(O)CO[C@H]1C=C[C@H]2[C@H]3Cc4ccc(O)c5c4[C@@]2(CCN3C)[C@H]1O5 (some centres unmarked) [Example 33]	0.0019	0.0046	0.0083	0.021	0.029	0.037	0.051	0.069	–	–	–	–	–	–	–	–
